We go through 2 molecules from patent US20220119446A1, “BIOMARKERS AND TREATMENT OF NEURONAL INJURY AND NEURODEGENERATION” (Board of Supervisons of Louisiana State University and …, priority 2018, published 2022).

Entries after “also recorded” stand apart in the source; their conditions may differ. * marks the point of attachment. Boc = CC(C)(C)OC(=O)*

The subject of one experiment is FZD5. The experiment can be described thus: SYBR green real-time PCR of Wnt5a receptors/co-receptors in RPE cells under UOS. It is filed as cell-based, human. In general terms: Quantitative PCR measures a nucleic acid by following its amplification.
Another experiment deals with Wnt5a. Description: Transient MCAo: Wnt5a protein in plasma. It is filed as in vivo. The settings on record: rat MCAo, days 1, 3 and 7 post-surgery. On the procedure:
In various exemplary embodiments, docosahexaenoic acid (DHA; 5 mg/kg, Cayman, Ann Arbor, Mich., USA), Box5 (1 mg/kg, Millipore-Sigma, Burlington, Mass.) or vehicle (0.9% saline) is administered intravenously into the femoral vein at a constant rate over 3 min using an infusion pump at 3 h after onset of MCAo. In embodiments, for western-blot study, rats are sacrificed on days 1, 3, or 7; for real-time PCR study, rats are sacrificed on days 1, 2, or 3.
A, Timeline of MCAo. DHA, Box5 or saline were administered at 1 h after 2 h of MCAo and rats were sacrificed on days 1, 2, 3 or 7. B, Effect of DHA on neurological recovery. Total score (normal score=0, maximal deficit=12), tactile placing (dorsal, lateral, proprioceptive reactions; normal score=0, maximal deficit=2) after MCAo. DHA or saline was administered at 1 h after 2 h of MCAo and rats sampled on days 1, 2, 3 or 7. […] C, Total neurological score at days 1, 3 and 7; D, MRI quantification at day 7 of the lesion volume depicting total, core and penumbra and; E, representative coronal sections showing T2 weighted image (T2WI), the defined core and penumbra region (red and blue, respectively) in the second column; and a 3D reconstruction of the lesion. […] J, Quantification of Wnt5a and NF-κB linked gene expression in MCAo. […] The mRNA were measured using SYBR green RT-PCR. […]

The test system of a further experiment is rats subjected to MCAo. The experiment can be described thus: Transient MCAo: MRI of lesion volume. It is filed as in vivo. The settings on record: rat, 2 h MCAo, Box5 IV 1 h later, day 7. Here is the method: The right MCA can be occluded for 2 h by intraluminal filament, as described previously (Belayev et al. 2011). Briefly, the right common carotid artery (CCA) and external carotid artery (ECA) can be exposed through midline neck incision, and then completely isolated from the surrounding nerves. The occipital branches of the ECA and pterygopalatine artery can be ligated. A 4-cm of 3-0 nylon filament, coated with poly-L-lysine can be advanced to the origin of MCA through the proximal ECA via internal carotid artery. The filament can be inserted 20 to 22 mm from the bifurcation of the CCA, according to the animal's body weight. The neck incision can then be closed, and the rats can be returned to their cages. After about 2 h of MCAo, the rats can be re-anesthetized with the same anesthetic combination and the intraluminal filament can be gently removed. […]
In embodiments, high-resolution ex vivo magnetic resonance imaging (MRI) is performed on 4% paraformaldehyde-fixed brains at each time point (days 1, 3 and 7) using an 11.7T Bruker Advance 8.9 cm horizontal bore instrument equipped with an 89 mm (ID) receiver coil (Bruker Biospin, Billerica, Mass., USA). T2-weighted images (T2WI), diffusion weighted images (DWI), 3D volumes and apparent diffusion coefficient (ADC) maps can be collected and analyzed as previously described and known in the art (Obenaus et al. 2011). […]

Procedure for FZD5: Cell samples, total RNA was extracted by RNeasy Mini Kit (QIAGEN) following manufacturer's protocol. The purity and concentration of RNA were determined by NanoDrop ND-1000 Spectrophotometer (Thermo Fisher Scientific). cDNA first strand was obtained from one microgram of total RNA using iScript™ Reverse Transcription Supermix (Bio-Rad Laboratories, CA, USA). The resulting cDNA was used as template SYBR-green or Eva-green based real-time PCR quantification using SsoAdvance Universal Supermix (Bio-Rad Laboratories). Data was collected and analyzed using CFX Manager 3.0 software, the ΔΔCt method. Melting curve was produced for every run to assure a unique amplified product per primer set.

Consider `CC/C=C\C[C@H](O)\C=C/C=C/C=C/[C@H](O)C/C=C\C/C=C\CCC(=O)O` [NPD1, 10R,17S-dihydroxy-docosa-4Z,7Z,11E,13E,15Z,19Z-hexaenoic acid], for which the FZD5 expression result in the experiment with FZD5 (ARPE-19 cells, UOS gives 3-fold increase (FIG. 1F)) is reported as “counteracted this effect”. In addition, the “FZD5 mRNA” value with FZD5 (hpRPE exposed to UOS, UOS gives 2-fold rise) is on record as “downregulated”. In the experiment with FZD5 (reduced under UOS), the ROR1 expression result is “re-established”.

Turning to “t-Boc-NH-Met-Asp-Gly-Cys-Glu-Leu-CO2H (Boc-MDGCEL-OH) [Box5]”, in the experiment with Wnt5a, the “plasma (blood) Wnt5a protein” value is on record as “failed to reduce the plasma Wnt5a content; also recorded: did not affect the levels of Wnt5a; also recorded: did not affect Wnt5a abundance”. In addition, the “MRI lesion (infarct) volume” value in the experiment with rats subjected to MCAo was “steep decreased in the infarcted volume; also recorded: resembling DHA treatment; also recorded: reduces stroke size; also recorded: decreased volume of brain damage”.
